Eleven molecules from publication PMC7269057, “Synthesis of calix[4]azacrown substituted sulphonamides with antioxidant, acetylcholinesterase, butyrylcholinesterase, tyrosinase and carbonic anhydrase inhibitory action” (Journal of Enzyme Inhibition and Medicinal Chemistry, 2020) can be followed below.

Read-outs that look alike come from different tables or passages of the source.

The nature of test [1]: DPPH radical scavenging assay. Conditions: 30 min in the dark, 517 nm; mean ± SD of three measurements; read-out: IC50 DPPH Free Radical. How it is done:
The DPPH (2,2-diphenyl-1-picrylhydrazyl) radical scavenging activity of the synthesised compounds was determined by a spectrophotometric method based on the reduction of an ethanol solution of DPPH[33]^,[34]. 2, 5, 10, 20 µL of 1 mM stock solution of each compound was completed to 40 µL with the DMSO and mixed with 160 µL of 0.1 mM of DPPH free radical solution. The mixture was led to stand for 30 min in the dark and the absorbance was then measured at 517 nm against a blank. Inhibition of free radical, DPPH, in percent (I %), was calculated according to the formula: I %=(Acontrol−Asample)/Acontrol×100 where Acontrol is the absorbance of the control reaction (containing all reagents except for the tested compounds), and Asample is the absorbance of the test compounds. Tests were carried out in triplicate. BHA and BHT were used as positive control.
(In general: The DPPH test is a chemical assay of radical scavenging.)

A short description of test [2]: ABTS cation radical decolorisation assay. Particulars: 6 min at room temperature, 734 nm; mean ± SD of three measurements. Here is the method:
The percent inhibition of decolorisation of ABTS [2,2′-azino-bis(3-ethylbenzothiazoline-6-sulfonic acid)] cation radical is obtained as a function of time and concentration and evaluated by comparison with the BHT and BHA compounds used as standard[35]^,[36]. The tested compounds at different concentrations are added to each well and 160 µL of 7 mM ABTS solution is added. After 6 min at room temperature, the absorbances were measured at 734 nm. ABTS cation radical decolorisation activities were determined by using the equation below: %Inhibition = (Acontrol−Asample)/Acontrol × 100 where A is the absorbance. Tests were carried out in triplicate. BHA and BHT were used as positive control.

For test [3], the system named is Tyrosinase from mushroom. In words: Anti-tyrosinase activity (diphenolase, L-DOPA substrate). Format: biochemical. Particulars: at 200 µM. How it is done:
Anti-tyrosinase activity of the compounds was performed according to the method designed by Hearing and Jimenez[39]. Firstly, the inhibition of diphenolase function of the compounds was evaluated and L-DOPA was used as substrate. Tyrosinase from mushroom (E.C. 1.14.18.1) (30 U, 28 nM) was dissolved in Na-phosphate buffer (pH = 6.8, […]) and the compounds were added to the solution for pre-incubation at room temperature for ten minutes. After incubation, 0.5 mM L-DOPA was added to the mixture and the change in absorbance was measured at 475 nm at 37 °C. For positive control, kojic acid was used. The following formula was used to calculate the percentage of all enzyme inhibitions: Inhibition (%) = (Acontrol–Asample)/Acontrol × 100

Test [4] addresses T1, hCA XII (Homo sapiens, UniProt O43570).
T1 construct: made in house
In words: CA inhibition, stopped flow CO2 hydrase assay. Format: biochemical. Particulars: mean from 3 assays, errors ± 5–10%. How it is done:
(§1) An SX.18 MV-R Applied Photophysics (Oxford, UK) stopped-flow instrument has been used to assay the inhibition of various CA isozymes. Phenol Red (at a concentration of 0.2 mM) has been used as an indicator, working at the absorbance maximum of 557 nm, with 10 mM Hepes (pH 7.4) as a buffer, 0.1 M Na2SO4 or NaClO4 (for maintaining constant the ionic strength; […]. Stock solutions of inhibitors were prepared at a concentration of 10 mM (in DMSO-water 1:1, v/v) and dilutions up to 0.01 nM done with the assay buffer mentioned above. At least 7 different inhibitor concentrations have been used for measuring the inhibition constant. Inhibitor and enzyme solutions were pre-incubated together for 10 min at room temperature before assay, to allow for the formation of the E-I complex. Triplicate experiments were done for each inhibitor concentration, and the value reported throughout the paper is the mean of such results. The inhibition constants were obtained by nonlinear least-squares methods using the Cheng-Prusoff equation, as reported earlier, and represent the mean from at least three different determinations1[27–32]. All CA isozymes used here were recombinant proteins obtained as reported earlier by our group.

For test [5], the target named is T2, hCA II (Homo sapiens, UniProt P00918).
T2 construct: made in house
In words: CA inhibition, stopped flow CO2 hydrase assay. Format: biochemical. Conditions: mean from 3 assays, errors ± 5–10%. How it is done:
as §1

For test [6], the target named is T3, hCA IX (Homo sapiens, UniProt Q16790).
T3 construct: made in house
In words: biochemical. Particulars: stopped flow CO2 hydrase assay; mean from 3 assays, errors ± 5–10%.
Excerpt: (§2) An SX.18 MV-R Applied Photophysics (Oxford, UK) stopped-flow instrument has been used to assay the inhibition of various CA isozymes[26]. […] The inhibition constants were obtained by nonlinear least-squares methods using the Cheng-Prusoff equation, as reported earlier, and represent the mean from at least three different determinations1[27–32].

For test [7], the target named is T4, hCA IV (Homo sapiens, UniProt P22748).
T4 construct: made in house
In words: biochemical. Conditions: stopped flow CO2 hydrase assay; mean from 3 assays, errors ± 5–10%.
Excerpt: as §2

Test [8] deals with T5, hCA I (Homo sapiens, UniProt P00915).
T5 construct: made in house
In words: biochemical. Conditions: stopped flow CO2 hydrase assay; mean from 3 assays, errors ± 5–10%.
Excerpt: as §2

Test [9] in a line: Metal chelating activity. Particulars: ferrous chloride/ferrozine, 562 nm; mean ± SD of three measurements; read-out: IC50 Metal Chelate. How it is done: The chelating ability of synthesised compounds was examined according to the method of Dinis et al.[37]. The tested compounds at different concentrations were added to each well and 4 µL of 2 mM ferrous (II) chloride was added. Then 8 µL of 5 mM ferrozine was added and the reaction was started. After 10 min at room temperature, the absorbance was measured at 562 nm against a blank. The results were expressed as a percentage of inhibition of the ferrozine-Fe^2+ complex formation. The percentage inhibition of the ferrozine -Fe^2+ complex formation was calculated using the formula given below: Chelating ability (%)=(Acontrol−Asample)/Acontrol×100 where A is the absorbance. Tests were carried out in triplicate. EDTA was used as a positive control.

For test [10], the target named is T6, hCA VII (Homo sapiens, UniProt P43166).
T6 construct: made in house
In words: biochemical. Particulars: stopped flow CO2 hydrase assay; mean from 3 assays, errors ± 5–10%.
Excerpt: as §2

Test [11] concerns the target BChE (Homo sapiens, UniProt P06276). In words: Anticholinesterase assay (Ellman), BChE. Format: biochemical. Conditions: read-out: BChE assay % inhibition. How it is done: The inhibitory effect of novel calix[4]azacrown substituted sulphonamide Schiff bases CX(1–6) on AChE and BChE activities was determined according to the slightly modified spectrophotometric method of Ellman et al.[38]. All compounds were dissolved in DMSO to prepare stock solutions at 4 mM concentration. Aliquots of 150 µL of 100 mM sodium phosphate buffer (pH 8.0), 10 µL of sample solution and 20 µL AChE (or BChE) solution were mixed and incubated for 15 min at 25 °C, and DTNB [5,5′-Dithio-bis(2-nitro-benzoic)acid] (10 µL) is added. The reaction was then initiated by the addition of acetylthiocholine iodide (or butyrylthiocholine iodide) (10 µL). […]. Tests were carried out in triplicate. Galantamine was used as positive control.
In general terms: In Ellman's method for cholinesterases, released thiocholine reacts with DTNB.

T1 sequence (O43570 25-354): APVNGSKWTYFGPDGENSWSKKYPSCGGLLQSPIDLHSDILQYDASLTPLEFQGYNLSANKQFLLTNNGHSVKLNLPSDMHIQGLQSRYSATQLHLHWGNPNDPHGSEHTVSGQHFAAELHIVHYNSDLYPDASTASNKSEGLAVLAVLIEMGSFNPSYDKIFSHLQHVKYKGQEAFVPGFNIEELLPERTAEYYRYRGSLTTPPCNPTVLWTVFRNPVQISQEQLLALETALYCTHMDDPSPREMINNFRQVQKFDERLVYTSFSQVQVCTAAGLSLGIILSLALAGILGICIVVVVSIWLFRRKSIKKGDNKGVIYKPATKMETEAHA
T4 sequence (P22748 19-312): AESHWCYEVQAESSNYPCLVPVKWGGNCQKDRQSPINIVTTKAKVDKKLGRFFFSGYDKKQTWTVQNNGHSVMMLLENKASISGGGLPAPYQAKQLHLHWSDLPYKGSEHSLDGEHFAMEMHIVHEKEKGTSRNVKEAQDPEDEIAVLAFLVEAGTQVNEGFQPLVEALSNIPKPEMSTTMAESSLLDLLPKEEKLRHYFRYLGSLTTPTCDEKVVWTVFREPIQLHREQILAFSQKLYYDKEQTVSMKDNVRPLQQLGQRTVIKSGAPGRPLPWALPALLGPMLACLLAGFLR
T6 sequence (P43166 whole entry): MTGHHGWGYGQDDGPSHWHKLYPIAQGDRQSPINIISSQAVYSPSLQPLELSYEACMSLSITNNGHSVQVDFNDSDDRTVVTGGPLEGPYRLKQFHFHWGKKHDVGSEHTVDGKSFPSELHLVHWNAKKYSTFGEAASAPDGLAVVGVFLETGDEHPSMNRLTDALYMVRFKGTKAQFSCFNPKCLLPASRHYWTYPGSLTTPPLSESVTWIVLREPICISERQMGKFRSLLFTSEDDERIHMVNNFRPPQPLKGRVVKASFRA
T5 sequence (P00915 whole entry): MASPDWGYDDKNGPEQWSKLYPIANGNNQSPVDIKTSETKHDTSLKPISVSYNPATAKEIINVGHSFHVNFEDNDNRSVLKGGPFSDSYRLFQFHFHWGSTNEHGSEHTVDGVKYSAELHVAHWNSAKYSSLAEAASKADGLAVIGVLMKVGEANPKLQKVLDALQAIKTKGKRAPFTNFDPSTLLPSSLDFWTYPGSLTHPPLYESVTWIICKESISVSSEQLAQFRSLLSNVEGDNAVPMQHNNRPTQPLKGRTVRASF
Sequence of BChE (P06276 29-602): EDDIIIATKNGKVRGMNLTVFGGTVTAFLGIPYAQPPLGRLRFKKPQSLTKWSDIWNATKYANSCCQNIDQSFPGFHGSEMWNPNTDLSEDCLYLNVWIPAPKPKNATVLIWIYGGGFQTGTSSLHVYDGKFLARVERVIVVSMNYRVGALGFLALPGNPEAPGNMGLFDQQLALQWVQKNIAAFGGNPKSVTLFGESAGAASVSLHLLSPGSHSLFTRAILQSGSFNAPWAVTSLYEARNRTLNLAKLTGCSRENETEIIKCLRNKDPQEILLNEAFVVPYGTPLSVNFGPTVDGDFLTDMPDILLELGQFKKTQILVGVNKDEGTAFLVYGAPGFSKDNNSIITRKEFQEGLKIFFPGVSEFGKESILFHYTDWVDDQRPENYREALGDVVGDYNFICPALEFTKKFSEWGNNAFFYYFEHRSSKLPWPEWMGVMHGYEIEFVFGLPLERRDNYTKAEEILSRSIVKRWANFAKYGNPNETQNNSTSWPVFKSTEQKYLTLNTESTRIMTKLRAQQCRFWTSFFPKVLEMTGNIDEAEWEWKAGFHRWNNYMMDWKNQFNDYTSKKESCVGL

Consider `COc1ccc(O)c(C(C)(C)C)c1` [BHA, reference compound], for which the IC50 (commonly the concentration that inhibits the measured activity by half) in test [1] was 7.88 ± 0.2 µM; in [2], 17.59 ± 0.1 µM.
`CC(C)(C)c1cc2c3c(c1)Cc1cc(C=Nc4ccc(S(=O)(=O)Nc5nc6ccccc6s5)cc4)cc(c1O)Cc1cc(C(C)(C)C)cc(c1OCC(=O)NCCNC(=O)CO3)Cc1cc(C=Nc3ccc(S(=O)(=O)Nc4nc5ccccc5s4)cc3)cc(c1O)C2` [CX-4]: the “Tyrosinase activity % inhibition” value in test [3] worked out at 16.48 ± 0.21%. In addition, the Ki in test [4], in test [5], in test [6], in [7], in test [8] and in test [10] was > 100 µM in each case. In addition, the IC50 in test [9] was > 1000 µM; in [1], 520.3 ± 0.89 µM; in test [2], > 1000 µM.
Take `Cc1ccc(S(=O)(=O)NN=Cc2cc3c(O)c(c2)Cc2cc(C(C)(C)C)cc4c2OCC(=O)NCCNC(=O)COc2c(cc(C(C)(C)C)cc2Cc2cc(C=NNS(=O)(=O)c5ccc(C)cc5)cc(c2O)C4)C3)cc1` [CX-5]: the “Tyrosinase activity % inhibition” value in test [3] is “no activity”. In addition, the Ki in test [4], in [5], in test [6], in test [7], in [8] and in [10] was > 100 µM in each case. Besides, the values for the 50% inhibitory concentration (IC50) in test [9], in [1] and in test [2] were > 1000 µM, 16.8 ± 0.85 µM and 9.79 ± 0.09 µM, respectively.
`CC(C)(C)c1cc2c3c(c1)Cc1cc(C=Nc4ccc(S(N)(=O)=O)cc4)cc(c1O)Cc1cc(C(C)(C)C)cc(c1OCC(=O)NCCNC(=O)CO3)Cc1cc(C=Nc3ccc(S(N)(=O)=O)cc3)cc(c1O)C2` [CX-1]: the “Tyrosinase activity % inhibition” value in [3] was 24.46 ± 0.53%. Besides, the Ki (commonly the equilibrium dissociation constant of an inhibitor or competing ligand from its target) in test [4] was 0.27 µM; in test [5], 0.82 µM; in test [6], 0.15 µM; in test [7], 4.36 µM; in [8], 5.55 µM; in test [10] it was 1.21 µM. Also, the figures for the IC50 in [9], in test [1] and in [2] were > 1000 µM, > 1000 µM and 769.97 ± 0.22 µM, respectively.
For `O=c1cc(CO)occ1O` [Kojik acid, kojic acid, reference compound], the “Tyrosinase activity % inhibition” value in test [3] was 95.26 ± 0.23%.
With `Cc1cc(NS(=O)(=O)c2ccc(/N=C/c3cc4c(O)c(c3)Cc3cc(C(C)(C)C)cc5c3OCC(=O)NCCNC(=O)COc3c(cc(C(C)(C)C)cc3Cc3cc(/C=N/c6ccc(S(=O)(=O)Nc7cc(C)on7)cc6)cc(c3O)C5)C4)cc2)no1` [CX-2], the “Tyrosinase activity % inhibition” value in test [3] was found to be 19.55 ± 0.43%. Further, the Ki was > 100 µM in test [4]; > 100 µM in test [5]; 67.6 µM in test [6]; > 100 µM in test [7]; > 100 µM in [8]; > 100 µM in test [10]. Besides, the IC50 in test [9], in test [1] and in test [2] was > 1000 µM throughout.
Turning to `COc1ccc2c3c1O[C@H]1C[C@@H](O)C=C[C@@]31CCN(C)C2` [Galantamine, reference compound], in test [11], the inhibition (commonly the change of the read-out against control, counted positive when it falls) at 200 µM came out at 76.5 ± 1.28%.
As to `CC(=O)Nc1ccc(S(=O)(=O)NN=Cc2cc3c(O)c(c2)Cc2cc(C(C)(C)C)cc4c2OCC(=O)NCCNC(=O)COc2c(cc(C(C)(C)C)cc2Cc2cc(C=NNS(=O)(=O)c5ccc(NC(C)=O)cc5)cc(c2O)C4)C3)cc1` [CX-6], the “Tyrosinase activity % inhibition” value in [3] was 28.15 ± 0.74%. The Ki is > 100 µM in test [4]; > 100 µM in test [5]; 64.6 µM in [6]; > 100 µM in test [7]; > 100 µM in [8]; > 100 µM in test [10]. Besides, in test [11] (at 200 µM), the inhibition at 200 µM came out at 35.4 ± 0.9%. Also, the values for the IC50 in test [9], in test [1] and in test [2] were > 1000 µM, 9.02 ± 0.05 µM and 7.74 ± 0.04 µM, respectively.
In the case of `CC(C)(C)c1cc2c3c(c1)Cc1cc(C=Nc4ccc(S(=O)(=O)Nc5ncccn5)cc4)cc(c1O)Cc1cc(C(C)(C)C)cc(c1OCC(=O)NCCNC(=O)CO3)Cc1cc(C=Nc3ccc(S(=O)(=O)Nc4ncccn4)cc3)cc(c1O)C2` [CX-3], the “Tyrosinase activity % inhibition” value in [3] turned out to be 35.52 ± 0.82%. Besides, the Ki was 10.2 µM in test [4]; > 100 µM in test [5]; 46 µM in test [6]; > 100 µM in test [7]; > 100 µM in test [8]; > 100 µM in [10]. The IC50 in test [9] was > 1000 µM; in [1] it was > 1000 µM; in test [2], 121 ± 0.95 µM.
With `O=C(O)CN(CCN(CC(=O)O)CC(=O)O)CC(=O)O` [EDTA, reference compound], the IC50 in [9] turned out to be 26.82 ± 0.1 µM.
Take `Cc1cc(C(C)(C)C)c(O)c(C(C)(C)C)c1` [BHT, reference compound]: the IC50 in test [1] came out at 58.86 ± 0.5 µM; in [2], 13.2 ± 0.27 µM.
